Results published in US8263565B2, “Nanoemulsion comprising metabolites of ginseng saponin as an active component and a method for preparing the same, and a skin-care composition for anti-aging containing the same” (Amorepacific Corporation, priority 2002, dated 2012).

Tested on: Guinea pig's skin
Assay: Skin penetration with Frantz cell, HPLC determination
Type: in vitro ADME
Method: Skin penetration was evaluated for Guinea pig's skin with Frantz cell. Before test, abdominal part, a piece of skin as large as 1 cm^2 square was excised. The excised skin was mounted on a Frantz cell with the diameter of 0.9 cm and fixed with clamp. 0.5 ml of test sample (in case of Examples 1˜9 and C. Examples 1˜6, 0.05 ml of sample and distilled water; and in case of Formulations 1˜30 and C. Formulations 1˜15, 0.5 ml of sample only) was placed on one side of skin (donor side). The other side (receiver side) was filled with mixture of distilled water and ethanol (4:1 weight ratio). Test was performed at 32° C., which is skin temperature. Test solvent was sampled at predetermined time intervals from the receiver side, and the amounts of penetrated compound K, ginsenoside F1 and compound Y were determined by HPLC system. The data were indicated in penetrated amount per applied concentration (μg/cm^2/wt %).
In case of purified ginseng saponin, the amount of penetrated saponin was determined. Also, in case of Bio GF1K, the amounts of penetrated compound K, ginsenoside F1 and compound Y were determined and total penetrated amounts were calculated by sum of each peak.
<HPLC Analytic Condition> • Column: C18 (ODS) • Solvent Flow: 1 ml/min • Detection UV: 203 nm • Sample test concentration 5 mg/ml • Sample injection amount: 10 μg • Eluent: Gradient condition • A: Acetonitrile/D.I. water=15/85 • B: Acetonitrile/D.I. water=80/20
<Solvent Gradient Condition>

Row | Compound | skin penetration (comparison in words)
1 | CC(C)=CCC[C@](C)(O[C@@H]1O[C@H](CO)[C@@H](O)[C@H](O)[C@H]1O)[C@H]1CC[C@]2(C)[C@@H]1[C@H](O)C[C@@H]1[C@@]3(C)CC[C@H](O)C(C)(C)[C@@H]3CC[C@]12C [compound K, 20-O-β-D-glucopyranosyl-20(S)-protopanaxadiol] | superior effects on skin penetration to purified ginseng saponin
2 | CC(C)=CCC[C@](C)(O[C@@H]1O[C@H](CO)[C@@H](O)[C@H](O)[C@H]1O)[C@H]1CC[C@]2(C)[C@@H]1[C@H](O)C[C@@H]1[C@@]3(C)CC[C@H](O)C(C)(C)[C@@H]3[C@@H](O)C[C@]12C [ginsenoside F1, 20-O-β-D-glucopyranosyl-20(S)-protopanaxatriol] | superior effects on skin penetration to purified ginseng saponin
3 | CC(C)=CCC[C@](C)(O[C@@H]1O[C@H](CO[C@@H]2OC[C@H](O)[C@H](O)[C@H]2O)[C@@H](O)[C@H](O)[C@H]1O)[C@H]1CC[C@]2(C)[C@@H]1[C@H](O)C[C@@H]1[C@@]3(C)CC[C@H](O)C(C)(C)[C@@H]3CC[C@]12C [compound Y, 20-O-[α-L-arabinopyranosyl(1→6)-β-D-glucopyranosyl]-20(S)-protopanaxadiol] | superior effects on skin penetration to purified ginseng saponin
